{"source": "patent US20240269139A1", "about": "“COMPOUNDS FOR TARGETED PROTEIN DEGRADATION OF KINASES” (DANA-FARBER CANCER INSTITUTE, INC., priority 2020, published 2024)", "assay_type_in_all_cases": "cell-based", "key": {"[1]": {"target": "T1, protein kinases (human kinome) (Homo sapiens, UniProt Q8TBX8)", "T1 sequence (Q8TBX8 1-421)": "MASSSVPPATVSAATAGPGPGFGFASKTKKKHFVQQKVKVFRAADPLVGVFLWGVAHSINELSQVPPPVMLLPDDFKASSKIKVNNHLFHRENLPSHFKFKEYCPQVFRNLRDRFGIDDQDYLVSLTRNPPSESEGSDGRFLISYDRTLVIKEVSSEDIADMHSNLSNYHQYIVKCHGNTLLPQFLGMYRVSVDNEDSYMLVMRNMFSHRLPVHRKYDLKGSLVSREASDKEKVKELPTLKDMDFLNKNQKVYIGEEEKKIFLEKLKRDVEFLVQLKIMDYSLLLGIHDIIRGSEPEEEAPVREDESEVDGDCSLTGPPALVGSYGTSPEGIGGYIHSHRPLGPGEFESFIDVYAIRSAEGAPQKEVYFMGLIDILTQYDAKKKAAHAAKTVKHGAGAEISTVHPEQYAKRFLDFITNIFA", "conditions": "PIP4K2C Q8TBX8-1"}, "[2]": {"target": "T2, protein kinases (human kinome) (Homo sapiens, UniProt Q96D53)", "T2 sequence (Q96D53 1-544)": "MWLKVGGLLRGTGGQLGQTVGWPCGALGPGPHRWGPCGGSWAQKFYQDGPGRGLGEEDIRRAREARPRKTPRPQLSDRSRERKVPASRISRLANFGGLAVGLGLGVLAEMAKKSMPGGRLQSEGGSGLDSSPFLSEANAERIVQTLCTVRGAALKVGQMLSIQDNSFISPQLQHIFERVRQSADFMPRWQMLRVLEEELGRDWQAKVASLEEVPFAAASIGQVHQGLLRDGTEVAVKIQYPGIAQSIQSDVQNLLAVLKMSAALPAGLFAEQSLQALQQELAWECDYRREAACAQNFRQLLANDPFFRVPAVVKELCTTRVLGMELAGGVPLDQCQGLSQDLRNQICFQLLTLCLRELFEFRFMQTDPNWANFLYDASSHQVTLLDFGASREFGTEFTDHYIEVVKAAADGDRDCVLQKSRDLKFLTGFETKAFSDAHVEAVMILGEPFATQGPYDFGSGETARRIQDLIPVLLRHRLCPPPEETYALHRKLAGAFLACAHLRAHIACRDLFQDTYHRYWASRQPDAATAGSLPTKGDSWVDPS", "conditions": "experiment wp137; for logFC: COQ8B (Q96D53-1)"}, "[3]": {"target": "protein kinases (human kinome) (Homo sapiens, UniProt O00311)", "sequence (O00311 whole entry)": "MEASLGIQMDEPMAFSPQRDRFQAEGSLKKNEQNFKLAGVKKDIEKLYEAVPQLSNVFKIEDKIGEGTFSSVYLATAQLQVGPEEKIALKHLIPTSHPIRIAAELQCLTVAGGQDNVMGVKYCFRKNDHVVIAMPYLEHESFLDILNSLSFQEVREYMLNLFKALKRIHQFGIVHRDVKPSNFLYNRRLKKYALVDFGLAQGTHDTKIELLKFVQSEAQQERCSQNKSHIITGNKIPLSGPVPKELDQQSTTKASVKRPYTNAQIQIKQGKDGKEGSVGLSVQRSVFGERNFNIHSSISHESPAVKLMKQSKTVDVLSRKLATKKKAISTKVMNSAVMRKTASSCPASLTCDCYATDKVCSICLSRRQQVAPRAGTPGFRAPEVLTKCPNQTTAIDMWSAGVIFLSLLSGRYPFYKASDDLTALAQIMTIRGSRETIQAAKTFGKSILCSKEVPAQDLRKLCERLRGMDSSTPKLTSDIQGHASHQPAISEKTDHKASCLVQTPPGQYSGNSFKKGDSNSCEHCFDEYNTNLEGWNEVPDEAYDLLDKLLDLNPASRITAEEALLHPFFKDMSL", "conditions": "for logFC: CDC7 (O00311-1)"}, "[4]": {"target": "T3, protein kinases (human kinome) (Homo sapiens, UniProt P51955)", "T3 sequence (P51955 1-445)": "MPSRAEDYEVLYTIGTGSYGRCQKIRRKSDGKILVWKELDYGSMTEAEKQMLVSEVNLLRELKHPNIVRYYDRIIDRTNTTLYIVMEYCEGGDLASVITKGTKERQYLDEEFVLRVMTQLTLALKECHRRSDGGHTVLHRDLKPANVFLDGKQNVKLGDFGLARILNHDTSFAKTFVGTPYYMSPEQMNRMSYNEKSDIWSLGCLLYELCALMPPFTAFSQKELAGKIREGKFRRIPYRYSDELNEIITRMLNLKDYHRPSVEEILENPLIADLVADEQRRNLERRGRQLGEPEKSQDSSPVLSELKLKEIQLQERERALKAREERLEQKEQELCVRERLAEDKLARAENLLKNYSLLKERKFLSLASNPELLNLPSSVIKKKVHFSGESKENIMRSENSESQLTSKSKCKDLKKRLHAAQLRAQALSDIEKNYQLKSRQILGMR", "conditions": "NEK2 (P51955)"}, "[5]": {"target": "protein kinases (human kinome) (Homo sapiens, UniProt P48730)", "sequence (P48730 whole entry)": "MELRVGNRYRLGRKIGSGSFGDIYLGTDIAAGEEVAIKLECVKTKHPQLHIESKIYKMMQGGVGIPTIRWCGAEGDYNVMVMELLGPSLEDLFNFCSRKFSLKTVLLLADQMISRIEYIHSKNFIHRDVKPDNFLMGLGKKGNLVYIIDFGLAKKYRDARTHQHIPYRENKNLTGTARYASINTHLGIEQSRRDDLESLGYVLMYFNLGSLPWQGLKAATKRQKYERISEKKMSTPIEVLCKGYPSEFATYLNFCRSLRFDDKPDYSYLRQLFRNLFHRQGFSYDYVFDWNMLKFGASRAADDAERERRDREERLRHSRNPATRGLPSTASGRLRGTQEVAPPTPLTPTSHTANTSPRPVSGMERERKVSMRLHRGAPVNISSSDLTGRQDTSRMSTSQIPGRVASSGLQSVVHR", "conditions": "for logFC CSNK1D: Accession P48730-1, direction down"}}, "note": "Read-outs that look alike come from different tables or passages of the source.", "data": [{"smiles": "Cc1ccc(NC(=O)c2cccc(C(F)(F)F)c2)cc1N1Cc2cnc(Nc3ccc(N4CCN(Cc5cn(CCCCCOc6cccc7c6C(=O)N(C6CCC(=O)NC6=O)C7=O)nn5)CC4)nc3)nc2N(C)C1=O", "note": "(stereo not shown) [DB0646, N-(3-(7-((6-(4-((1-(5-((2-(2,6-Dioxopiperidin-3-yl)-1,3-dioxoisoindolin-4-yl)oxy)pentyl)-1H-1,2,3-triazol-4-yl)methyl)piperazin-1-v)pyridin-3-yl)amino)-1-methyl-2-oxo-1,4-dihydropyrimido[4,5-d]pyrimidin-3(2H)-yl)-4-methylphenyl)-3-(trifluoromethyl)benzamide]", "values": [{"measurement": "logFC", "setting": "[1]; experiment wp107", "value": "−0.353"}, {"measurement": "logFC", "setting": "[1]; experiment wp117", "value": "−0.3503"}, {"measurement": "logFC", "setting": "[1]; experiment wp160, 8 hr", "value": "−0.4714"}]}, {"smiles": "CC(C)(C)c1nc(-c2cccc(NS(=O)(=O)c3c(F)cccc3F)c2F)c(-c2ccnc(NCCOCCNC(=O)CCOCCOCCNc3cccc4c3C(=O)N(C3CCC(=O)NC3=O)C4=O)n2)s1", "note": "(stereo not shown) [DD.03.106]", "values": [{"measurement": "logFC", "setting": "[2]", "value": "−0.3442"}, {"measurement": "logFC of COQ8B (Q96D53-1)", "setting": "[2]", "value": "−0.3442"}]}, {"smiles": "Cc1ncsc1-c1ccc([C@H](C)NC(=O)[C@@H]2C[C@@H](O)CN2C(=O)[C@@H](NC(=O)CCOCCOCCN2CCN(c3ccc(Nc4ncc(Cl)c(Nc5ccccc5S(=O)(=O)C(C)C)n4)cc3)CC2)C(C)(C)C)cc1", "note": "[FMF.06.098.1]", "values": [{"measurement": "logFC", "setting": "[3]; experiment wp108", "value": "−0.3323"}, {"measurement": "logFC", "setting": "[3]; experiment wp131", "value": "−0.4109"}, {"measurement": "logFC of CDC7 (O00311-1)", "setting": "[3]; Experiment wp108", "value": "−0.3323"}, {"measurement": "logFC of CDC7 (O00311-1)", "setting": "[3]; experiment wp131", "value": "−0.4109"}]}, {"smiles": "CC(C)S(=O)(=O)c1ccccc1Nc1nc(Nc2ccc(N3CCN(CCOCCNC(=O)CNc4cccc5c4C(=O)N(C4CCC(=O)NC4=O)C5=O)CC3)cc2)ncc1Cl", "note": "(stereo not shown) [SK.3.91]", "values": [{"measurement": "logFC", "setting": "[3]; experiment wp133, 4 hr", "value": "−0.3652"}, {"measurement": "logFC of CDC7 (O00311-1)", "setting": "[3]; experiment wp133, 4 hr", "value": "−0.3652"}, {"measurement": "logFC", "setting": "[4]; experiment wp103", "value": "−0.4564"}, {"measurement": "logFC", "setting": "[4]; experiment wp103, direction down", "value": "−0.4564"}, {"measurement": "logFC", "setting": "[4]; experiment wp105", "value": "−0.3908"}, {"measurement": "logFC", "setting": "[4]; experiment wp105, direction down", "value": "−0.3908"}, {"measurement": "logFC", "setting": "[4]; experiment wp107", "value": "−0.6368"}, {"measurement": "logFC", "setting": "[4]; experiment wp107, direction down", "value": "−0.6368"}, {"measurement": "logFC", "setting": "[4]; experiment wp133, 1 hr", "value": "−0.4397"}, {"measurement": "logFC", "setting": "[4]; experiment wp133, 1 hr, direction down", "value": "−0.4397"}, {"measurement": "logFC", "setting": "[4]; experiment wp133, 2 hr", "value": "−0.4411"}, {"measurement": "logFC", "setting": "[4]; experiment wp133, 2 hr, direction down", "value": "−0.4411"}, {"measurement": "logFC", "setting": "[4]; experiment wp133, 4 hr", "value": "−0.7303"}, {"measurement": "logFC", "setting": "[4]; experiment wp133, 4 hr, direction down", "value": "−0.7303"}, {"measurement": "logFC", "setting": "[4]; experiment wp160, 4 hr", "value": "−0.4294"}, {"measurement": "logFC", "setting": "[4]; experiment wp160, 4 hr, direction down", "value": "−0.4294"}, {"measurement": "logFC CSNK1D", "setting": "[5]; experiment wp133, 4 hr", "value": "−0.4585"}, {"measurement": "logFC of CSNK1D (P48730-1)", "setting": "[5]; experiment wp133, 4 hr", "value": "−0.4585"}]}, {"smiles": "CC(C)S(=O)(=O)c1ccccc1Nc1nc(Nc2ccc(N3CCN(CCOCCOCCNC(=O)CNc4cccc5c4C(=O)N(C4CCC(=O)NC4=O)C5=O)CC3)cc2)ncc1Cl", "note": "(stereo not shown) [TL12.186]", "values": [{"measurement": "logFC", "setting": "[4]; experiment wp131", "value": "−0.3783"}, {"measurement": "logFC", "setting": "[4]; experiment wp131, direction down", "value": "−0.3783"}, {"measurement": "logFC", "setting": "[2]", "value": "−0.4934"}, {"measurement": "logFC of COQ8B (Q96D53-1)", "setting": "[2]", "value": "−0.4934"}, {"measurement": "logFC CSNK1D", "setting": "[5]; experiment wp131", "value": "−0.3551"}, {"measurement": "logFC of CSNK1D (P48730-1)", "setting": "[5]; experiment wp131", "value": "−0.3551"}]}, {"smiles": "Nc1ncc(-c2ccc(S(=O)(=O)N(CCCNC(=O)CCOCCOCCOCCOCCOCCNc3cccc4c3C(=O)N(C3CCC(=O)NC3=O)C4=O)C3CC3)cc2)cc1-c1ccc2c(c1)CCNC2=O", "note": "(stereo not shown) [WH.10417.099]", "values": [{"measurement": "logFC", "setting": "[1]; experiment wp056", "value": "−0.5009"}, {"measurement": "logFC", "setting": "[1]; experiment wp103", "value": "−0.5201"}, {"measurement": "logFC", "setting": "[1]; experiment wp105", "value": "−0.3715"}, {"measurement": "logFC", "setting": "[1]; experiment wp107", "value": "−0.5734"}]}]}
